Assay: recombinant barcode read abundance after kanamycin selection (control-corrected) (log10(CPM+1)); higher = more efficient recombination; sequences stand for … in AGTGCAGAGAAAATCGGCCAGTTTTCTCTGCCTGCAGTCCGCATGCCGT…AGATTTATGCAGCGGACTGCCTTTCTCCCAAAGTGATAAACCGGACAGTATCATGGACCGGTTTTCCCGGTAATCCGTATTTGCAAGGTTGGTTTCACT; site = the 11-nt target
How it was run: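 A vector carrying a T7-inducible recombinase and the last 73 bp of the bridge RNA received, by Gibson cloning, oligos encoding a promoter, target, barcode and the first 104 bridge RNA bases under J23119. The pooled constructs entered E. coli together with a donor plasmid by electroporation. Selection used chloramphenicol/ampicillin/kanamycin with 0.1 mM IPTG, with chloramphenicol/ampicillin LB agar as the control, each in two replicates. Recombination efficiency is the averaged, control-corrected counts-per-million of barcodes at recombinant junctions, reported as log10(CPM+1).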
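Note: IS621 recombinase and bridge RNA in Escherichia coli cells.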

Sequence	recombinant barcode read abundance (log10)
GACATCTCTTGGGTTCTAACCTGTTGCCT (site GACATCACTAG)	0.105
GACATCTCTTGGGTTCTAACCTGTTGCCT (site GACATCCCTAG)	0.00568
GACATCTCTTGGGTTCTAACCTGTTGCCT (site GACATCGCTAG)	0.0954
GACATCTCTTGGGTTCTAACCTGTTGCCT (site GACATCTCTAG)	1.19
GACCGAGCTTGGGTTCTAACCTGTTGCCT (site GACCGAGCTAG)	1.33
GACCGAGCTTGGGTTCTAACCTGTTGCCT (site GACCGCGCTAG)	0.0201
GACCGAGCTTGGGTTCTAACCTGTTGCCT (site GACCGGGCTAG)	0.145
GACCGAGCTTGGGTTCTAACCTGTTGCCT (site GACCGTGCTAG)	0.345
GACCGTCCTTGGGTTCTAACCTGTTGCGT (site GACCGTCCTAA)	0.306
GACCGTCCTTGGGTTCTAACCTGTTGCGT (site GACCGTCCTAC)	2.65
GACCGTCCTTGGGTTCTAACCTGTTGCGT (site GACCGTCCTAG)	0.573
GACCGTCCTTGGGTTCTAACCTGTTGCGT (site GACCGTCCTAT)	1.14
GACCTGGCTTGGGTTCTAACCTGTTGCCG (site GACCTGACTTG)	0.176
GACCTGGCTTGGGTTCTAACCTGTTGCCG (site GACCTGGCTCG)	0.886
GACGCAACTTGGGTTCTAACCTGTTGCAT (site GACGCAACTAT)	0.0836
GACGCAACTTGGGTTCTAACCTGTTGCAT (site GACGCTTCTAT)	0.0419
GACGCCACTTGGGTTCTAACCTGTTGCCT (site AACGCCACTAG)	0.162
GACGCCACTTGGGTTCTAACCTGTTGCCT (site GACGCCACTAG)	0.425
GACGCCTCTTGGGTTCTAACCTGTTGCCT (site AACGCCTCTAG)	0.227
GACGCCTCTTGGGTTCTAACCTGTTGCCT (site CACGCCTCTAG)	0.202
GACGCCTCTTGGGTTCTAACCTGTTGCCT (site GACGCCTCTAG)	0.47
GACGCCTCTTGGGTTCTAACCTGTTGCCT (site TACGCCTCTAG)	0

Sequence	recombinant barcode read abundance (log10)
GACGCCTCTTGGGTTCTAACCTGTTGCGC (site GACGCCTCTGC)	2.25
GACGCCTCTTGGGTTCTAACCTGTTGCGC (site TTGAAACCTAG)	0.26
GACGGACCTTGGGTTCTAACCTGTTGCTA (site ATAACGGCTAG)	0.0648
GACGGACCTTGGGTTCTAACCTGTTGCTA (site GACGGACCTTA)	1.26
GACGGATCTTGGGTTCTAACCTGTTGCCT (site GACGGATCTAA)	0.842
GACGGATCTTGGGTTCTAACCTGTTGCCT (site GACGGATCTAC)	0.101
GACGGATCTTGGGTTCTAACCTGTTGCCT (site GACGGATCTAG)	0.212
GACGGATCTTGGGTTCTAACCTGTTGCCT (site GACGGATCTAT)	0.0859
GACGGCACTTGGGTTCTAACCTGTTGCGG (site GACGGCACTCC)	2.56
GACGGCACTTGGGTTCTAACCTGTTGCGG (site TCTCATGCTAT)	0.166
GACGGCTCTTGGGTTCTAACCTGTTGCCT (site GACGGCTCTAG)	1.3
GACGGCTCTTGGGTTCTAACCTGTTGCCT (site GCCGGCTCTAG)	0.365
GACGGGGCTTGGGTTCTAACCTGTTGCAG (site GACGGAGCTCA)	0.753
GACGGGGCTTGGGTTCTAACCTGTTGCAG (site GACGGGGCTCT)	2.59
GACGTACCTTGGGTTCTAACCTGTTGCCT (site GACATACCTAG)	0.428
GACGTACCTTGGGTTCTAACCTGTTGCCT (site GACCTACCTAG)	0.133
GACGTACCTTGGGTTCTAACCTGTTGCCT (site GACGTACCTAG)	1.31
GACGTACCTTGGGTTCTAACCTGTTGCCT (site GACTTACCTAG)	0.0104
GACGTAGCTTGGGTTCTAACCTGTTGCCT (site GACGTAGCTAG)	1.6
GACGTAGCTTGGGTTCTAACCTGTTGCCT (site GCCGTAGCTAG)	0.083
GACGTAGCTTGGGTTCTAACCTGTTGCCT (site GGCGTAGCTAG)	0.52
GACGTAGCTTGGGTTCTAACCTGTTGCCT (site GTCGTAGCTAG)	0.279

Sequence	recombinant barcode read abundance (log10)
GACGTTGCTTGGGTTCTAACCTGTTGCCT (site GACGTTGCTAG)	1.32
GACGTTGCTTGGGTTCTAACCTGTTGCCT (site GACTTTACTAG)	0.102
GACTACCCTTGGGTTCTAACCTGTTGCCT (site ATGCTGTCTTA)	0.0344
GACTACCCTTGGGTTCTAACCTGTTGCCT (site GACTACCCTAG)	2.2
GACTCCGCTTGGGTTCTAACCTGTTGCCT (site GACTCCGCTAG)	0.876
GACTCCGCTTGGGTTCTAACCTGTTGCCT (site TACTCCGCTAG)	0.692
GACTCGACTTGGGTTCTAACCTGTTGCTT (site GAATCAACTAA)	0.122
GACTCGACTTGGGTTCTAACCTGTTGCTT (site GACTCGACTAA)	0.395
GACTCTCCTTGGGTTCTAACCTGTTGCTT (site GACTCTCCTAA)	1.53
GACTCTCCTTGGGTTCTAACCTGTTGCTT (site GACTCTCCTAC)	0.0892
GACTCTCCTTGGGTTCTAACCTGTTGCTT (site GACTCTCCTAG)	0.029
GACTCTCCTTGGGTTCTAACCTGTTGCTT (site GACTCTCCTAT)	0.241
GACTGGTCTTGGGTTCTAACCTGTTGCAT (site GACTGGTCTAG)	0.969
GACTGGTCTTGGGTTCTAACCTGTTGCAT (site GACTGGTCTAT)	1.6
GACTGGTCTTGGGTTCTAACCTGTTGCCT (site GACTGGTCTAG)	1.45
GACTGGTCTTGGGTTCTAACCTGTTGCCT (site GACTGGTCTAT)	0.364
GACTTACCTTGGGTTCTAACCTGTTGCCT (site GACATACCTAG)	0.134
GACTTACCTTGGGTTCTAACCTGTTGCCT (site GACCTACCTAG)	1.43
GACTTACCTTGGGTTCTAACCTGTTGCCT (site GACGTACCTAG)	0.111
GACTTACCTTGGGTTCTAACCTGTTGCCT (site GACTTACCTAG)	0.843
GACTTGCCTTGGGTTCTAACCTGTTGCAT (site GACTTACCTAT)	0.0511
GACTTGCCTTGGGTTCTAACCTGTTGCAT (site GACTTCCCTAT)	0.113

Sequence	recombinant barcode read abundance (log10)
GACTTGCCTTGGGTTCTAACCTGTTGCAT (site GACTTGCCTAT)	0.313
GACTTGCCTTGGGTTCTAACCTGTTGCAT (site GACTTTCCTAT)	0.813
GAGAAGACTTGGGTTCTAACCTGTTGCGT (site ACTCGTCCTTA)	0.118
GAGAAGACTTGGGTTCTAACCTGTTGCGT (site GAGAAGACTAC)	2.56
GAGACATCTTGGGTTCTAACCTGTTGCCT (site GAGAAATCTAG)	0.11
GAGACATCTTGGGTTCTAACCTGTTGCCT (site GAGACATCTAG)	0.732
GAGACATCTTGGGTTCTAACCTGTTGCCT (site GAGAGATCTAG)	0.463
GAGACATCTTGGGTTCTAACCTGTTGCCT (site GAGATATCTAG)	0.206
GAGAGAACTTGGGTTCTAACCTGTTGCCT (site CCATAGGCTCA)	0.0856
GAGAGAACTTGGGTTCTAACCTGTTGCCT (site GAGAGAACTAG)	1.51
GAGAGGTCTTGGGTTCTAACCTGTTGCGT (site GAGAGGTCTAA)	0.502
GAGAGGTCTTGGGTTCTAACCTGTTGCGT (site GAGAGGTCTAC)	2.5
GAGAGGTCTTGGGTTCTAACCTGTTGCGT (site GAGAGGTCTAG)	0.613
GAGAGGTCTTGGGTTCTAACCTGTTGCGT (site GAGAGGTCTAT)	1.53
GAGAGTCCTTGGGTTCTAACCTGTTGCCA (site ATTGAGACTAA)	0.281
GAGAGTCCTTGGGTTCTAACCTGTTGCCA (site GAGAGTCCTTG)	1.24
GAGATTCCTTGGGTTCTAACCTGTTGCCT (site CAGATTCCTAG)	0.0463
GAGATTCCTTGGGTTCTAACCTGTTGCCT (site GAGATTCCTAG)	0.399
GAGCAAACTTGGGTTCTAACCTGTTGCCT (site GAGCAAACTAG)	1.2
GAGCAAACTTGGGTTCTAACCTGTTGCCT (site GATCAATCTAG)	0.16

Reference: the supplement of paper PMC11208160
